Laboratory results: patent publication US8858968B2, “Use of tyrosine-arginine dipeptide and niacinamide as substance P antagonist” (L'Oreal, priority 2005, dated 2014)
Ends that are not written are not given here.

What was measured:
[1] = system: human skin kept under survival conditions; assay: Histological evaluation of dermal oedema (semi-quantitative score) on the skin sections of Example 1; assay type: cell-based; conditions: for effect on dermal oedema (in words): compared with substance P-stimulated skin and control skin; for Dermal oedema score (0-3): human skin explant, substance P 10 μM, niacinamide 0.5%, dipeptide 0.1% (b140 prints the reverse), mean +/− spread
Procedure: The activity of each of the active agents and of the combination thereof is evaluated in a model of human skin kept under survival conditions. […] Using the sections prepared in Example 1, the oedema is evaluated by means of semi-quantitative scores: • score 0: no oedema • score 1: very slight oedema • score 2: moderate oedema • score 3: considerable oedema

[2] = system: human skin kept under survival conditions; assay: Histological evaluation of the average surface area of the capillaries in human skin kept under survival conditions, stimulated with substance P; assay type: cell-based; conditions: for effect on surface area / dilatation of the dermal capillaries (in words): compared with substance P-treated skin and control skin; for Percentage of dilated dermal capillaries: substance P 10 μM in culture medium, niacinamide 0.5%, dipeptide 0.1% (b140 prints the reverse), mean +/− spread
Procedure: The activity of each of the active agents and of the combination thereof is evaluated in a model of human skin kept under survival conditions. After several hours of re-equilibration of the skin with culture medium (antibiotic+SVF), the culture medium is renewed and substance P at 10 (M, with or without each of the active agents or the combination thereof, is (are) added to the culture medium. […] Morphometric analysis of the surface area (μm^2) occupied by the lumen of the vessels is carried out by microscopic observation from sections: the skin fragments are fixed in Bouin's solution and embedded in paraffin and then stained with haemalun-eosine. The vascular dilatation is evaluated by counting the number of dilated vessels over the entire histological section (16 fields at 40×magnification). This analysis makes it possible to determine the average surface area (μm^2) occupied by the vessels in the dermis.

Compound	effect on dermal oedema (in words) [1]	Dermal oedema score (0-3) [1]	effect on surface area / dilatation of the dermal capillaries (in words) [2]	Percentage of dilated dermal capillaries ([2]; human skin explant)	increase in the oedema score ([1]; treatment with substance P versus control skin) [%]	oedema score ([1]; treatment with substance P, score 0-3)	increase in the surface area compared with the normal skin ([2]; substance P at 10 μM) [%]	average surface area occupied by the vessels in the dermis ([2]; substance P at 10 μM, human skin explant)
NC(=O)c1cccnc1 [niacinamide, pyridine-3-carboxamide]	back to a state corresponding to the control	1.03 +/− 0.64	back to a state corresponding to the control	108 +/− 27.6	–	–	–	–
N-acetyl-tyrosine-arginine-decahexyl ester [dipeptide]	back to a state corresponding to the control	1 +/− 0.6	back to a state corresponding to the control	103.16 +/− 34	–	–	–	–
substance P: polypeptide (undecapeptide) produced and released by a nerve ending; used at 10 μM as stimulus (RPKPQQFFGLM; ends and bridges not checked; UniProt P20366 58-68, looked up)	–	1.9 +/− 0.7	–	161.6 +/− 56.6	121	1.9+/−0.64	63	161.6+/−56.6 μm^2
